In article doi:10.1101/2023.11.24.568596v1 (biorxiv, 2023):

Key:
Conditions in all cases: binder
AAK1 = AAK1 (Homo sapiens, UniProt Q2M2I8)
BRPF1 = biological target: T1, BRPF1 (Homo sapiens, UniProt P55201)
T1 sequence (P55201 1-1214): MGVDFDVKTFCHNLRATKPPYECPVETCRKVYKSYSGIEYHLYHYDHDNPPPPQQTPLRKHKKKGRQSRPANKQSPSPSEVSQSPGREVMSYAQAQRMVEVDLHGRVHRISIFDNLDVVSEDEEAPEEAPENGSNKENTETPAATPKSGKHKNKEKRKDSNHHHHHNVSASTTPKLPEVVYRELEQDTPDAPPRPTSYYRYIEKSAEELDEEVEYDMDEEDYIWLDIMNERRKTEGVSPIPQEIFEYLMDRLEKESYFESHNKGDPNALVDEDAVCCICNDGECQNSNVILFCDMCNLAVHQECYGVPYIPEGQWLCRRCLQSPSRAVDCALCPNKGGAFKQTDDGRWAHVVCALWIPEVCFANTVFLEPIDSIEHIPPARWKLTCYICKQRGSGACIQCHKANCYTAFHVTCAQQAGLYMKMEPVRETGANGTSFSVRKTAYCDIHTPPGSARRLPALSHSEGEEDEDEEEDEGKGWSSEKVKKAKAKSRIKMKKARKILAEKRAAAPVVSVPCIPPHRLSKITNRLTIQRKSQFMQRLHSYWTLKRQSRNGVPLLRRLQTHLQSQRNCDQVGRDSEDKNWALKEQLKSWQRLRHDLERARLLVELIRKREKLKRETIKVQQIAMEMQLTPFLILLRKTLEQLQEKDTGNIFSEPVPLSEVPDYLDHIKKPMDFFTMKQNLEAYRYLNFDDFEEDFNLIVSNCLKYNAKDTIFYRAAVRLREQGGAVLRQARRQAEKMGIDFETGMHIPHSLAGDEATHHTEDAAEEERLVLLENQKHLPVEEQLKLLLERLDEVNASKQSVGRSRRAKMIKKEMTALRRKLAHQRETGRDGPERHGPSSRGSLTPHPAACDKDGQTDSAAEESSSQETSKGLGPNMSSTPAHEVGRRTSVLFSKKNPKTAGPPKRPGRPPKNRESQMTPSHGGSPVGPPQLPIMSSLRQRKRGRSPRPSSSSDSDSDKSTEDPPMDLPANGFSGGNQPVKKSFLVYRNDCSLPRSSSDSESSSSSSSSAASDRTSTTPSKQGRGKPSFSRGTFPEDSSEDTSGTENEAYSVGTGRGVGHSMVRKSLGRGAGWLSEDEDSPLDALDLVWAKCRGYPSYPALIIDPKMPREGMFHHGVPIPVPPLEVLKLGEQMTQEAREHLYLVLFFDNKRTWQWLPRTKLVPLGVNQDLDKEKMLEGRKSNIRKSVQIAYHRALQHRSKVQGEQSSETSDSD

CK1d = CK1d (Homo sapiens, UniProt P48730)
CaMKK2 = CaMKK2 (Homo sapiens, UniProt Q96RR4)
MSK1b = MSK1b (Homo sapiens, UniProt O75582)
NEK2 = biological target: T2, NEK2 (Homo sapiens, UniProt P51955)
T2 sequence (P51955 1-445): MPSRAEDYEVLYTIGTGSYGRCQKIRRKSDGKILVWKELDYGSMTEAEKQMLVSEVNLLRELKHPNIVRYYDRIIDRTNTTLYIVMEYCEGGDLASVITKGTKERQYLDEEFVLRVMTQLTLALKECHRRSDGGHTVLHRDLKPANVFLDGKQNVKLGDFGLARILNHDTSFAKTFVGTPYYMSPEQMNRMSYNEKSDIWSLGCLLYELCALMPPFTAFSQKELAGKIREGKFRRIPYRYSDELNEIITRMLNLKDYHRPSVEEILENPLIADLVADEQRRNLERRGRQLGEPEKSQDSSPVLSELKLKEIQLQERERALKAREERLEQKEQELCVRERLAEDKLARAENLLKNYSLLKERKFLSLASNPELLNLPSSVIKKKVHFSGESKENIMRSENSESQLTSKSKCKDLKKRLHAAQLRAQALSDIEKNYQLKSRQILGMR

TTK = biological target: T3, TTK (Homo sapiens, UniProt P33981)
T3 sequence (P33981 1-857): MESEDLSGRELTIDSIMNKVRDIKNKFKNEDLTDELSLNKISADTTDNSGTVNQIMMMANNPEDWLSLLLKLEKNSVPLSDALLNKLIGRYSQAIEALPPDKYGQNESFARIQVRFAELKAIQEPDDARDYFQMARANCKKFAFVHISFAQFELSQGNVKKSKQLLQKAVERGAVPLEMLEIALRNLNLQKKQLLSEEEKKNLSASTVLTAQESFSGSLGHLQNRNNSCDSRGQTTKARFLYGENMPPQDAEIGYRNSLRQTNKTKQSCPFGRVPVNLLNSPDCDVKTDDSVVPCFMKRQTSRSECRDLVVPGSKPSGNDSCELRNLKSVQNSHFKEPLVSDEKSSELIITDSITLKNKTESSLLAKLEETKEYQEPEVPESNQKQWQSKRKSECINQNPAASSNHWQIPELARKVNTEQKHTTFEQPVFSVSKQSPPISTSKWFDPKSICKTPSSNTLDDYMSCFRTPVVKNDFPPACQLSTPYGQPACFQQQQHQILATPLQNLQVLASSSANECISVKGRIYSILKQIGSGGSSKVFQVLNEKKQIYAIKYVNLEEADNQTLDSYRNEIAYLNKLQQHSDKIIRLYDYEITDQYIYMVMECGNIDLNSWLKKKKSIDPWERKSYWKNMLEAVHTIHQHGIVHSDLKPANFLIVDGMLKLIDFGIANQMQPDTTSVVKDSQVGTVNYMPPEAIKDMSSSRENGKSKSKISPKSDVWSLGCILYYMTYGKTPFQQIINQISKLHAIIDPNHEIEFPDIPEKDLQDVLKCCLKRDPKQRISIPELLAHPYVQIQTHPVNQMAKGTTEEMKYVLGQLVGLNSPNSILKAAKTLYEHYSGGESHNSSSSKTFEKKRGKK

MSK1b, sequence (O75582 whole entry): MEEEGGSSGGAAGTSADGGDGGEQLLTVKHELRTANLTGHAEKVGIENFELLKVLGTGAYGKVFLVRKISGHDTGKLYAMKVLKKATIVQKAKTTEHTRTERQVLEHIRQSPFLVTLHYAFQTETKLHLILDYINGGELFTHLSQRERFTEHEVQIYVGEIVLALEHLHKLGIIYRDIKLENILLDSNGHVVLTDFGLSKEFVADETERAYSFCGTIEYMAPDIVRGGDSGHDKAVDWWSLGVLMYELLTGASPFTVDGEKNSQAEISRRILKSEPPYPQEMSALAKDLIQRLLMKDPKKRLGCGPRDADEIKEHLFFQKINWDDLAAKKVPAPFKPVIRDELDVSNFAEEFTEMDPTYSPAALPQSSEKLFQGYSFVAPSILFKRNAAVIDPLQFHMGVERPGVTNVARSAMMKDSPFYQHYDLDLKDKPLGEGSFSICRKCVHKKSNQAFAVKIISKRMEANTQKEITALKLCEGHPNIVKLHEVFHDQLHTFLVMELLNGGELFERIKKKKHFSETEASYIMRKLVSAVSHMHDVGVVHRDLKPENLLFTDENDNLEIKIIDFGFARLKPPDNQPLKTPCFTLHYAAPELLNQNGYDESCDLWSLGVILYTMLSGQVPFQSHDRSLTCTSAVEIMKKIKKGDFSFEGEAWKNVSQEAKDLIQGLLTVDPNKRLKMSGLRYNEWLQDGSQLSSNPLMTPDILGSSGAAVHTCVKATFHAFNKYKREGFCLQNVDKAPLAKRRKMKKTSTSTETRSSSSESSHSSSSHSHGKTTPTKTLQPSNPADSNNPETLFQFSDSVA
CaMKK2, sequence (Q96RR4 whole entry): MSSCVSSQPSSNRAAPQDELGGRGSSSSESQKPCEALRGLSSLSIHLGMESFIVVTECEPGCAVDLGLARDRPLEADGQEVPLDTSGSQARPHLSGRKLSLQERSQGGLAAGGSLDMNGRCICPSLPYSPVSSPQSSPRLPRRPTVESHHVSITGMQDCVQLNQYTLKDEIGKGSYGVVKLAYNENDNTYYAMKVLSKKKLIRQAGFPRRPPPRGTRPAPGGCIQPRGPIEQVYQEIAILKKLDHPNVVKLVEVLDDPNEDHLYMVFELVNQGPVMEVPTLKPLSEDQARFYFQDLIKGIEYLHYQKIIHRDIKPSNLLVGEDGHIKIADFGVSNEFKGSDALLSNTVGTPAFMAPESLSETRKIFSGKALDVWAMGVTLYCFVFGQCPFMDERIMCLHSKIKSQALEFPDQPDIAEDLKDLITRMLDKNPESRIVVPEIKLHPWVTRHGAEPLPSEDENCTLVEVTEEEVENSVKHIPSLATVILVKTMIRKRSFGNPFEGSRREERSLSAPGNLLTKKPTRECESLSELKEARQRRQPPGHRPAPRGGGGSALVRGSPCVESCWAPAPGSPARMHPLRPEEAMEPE
CK1d, sequence (P48730 whole entry): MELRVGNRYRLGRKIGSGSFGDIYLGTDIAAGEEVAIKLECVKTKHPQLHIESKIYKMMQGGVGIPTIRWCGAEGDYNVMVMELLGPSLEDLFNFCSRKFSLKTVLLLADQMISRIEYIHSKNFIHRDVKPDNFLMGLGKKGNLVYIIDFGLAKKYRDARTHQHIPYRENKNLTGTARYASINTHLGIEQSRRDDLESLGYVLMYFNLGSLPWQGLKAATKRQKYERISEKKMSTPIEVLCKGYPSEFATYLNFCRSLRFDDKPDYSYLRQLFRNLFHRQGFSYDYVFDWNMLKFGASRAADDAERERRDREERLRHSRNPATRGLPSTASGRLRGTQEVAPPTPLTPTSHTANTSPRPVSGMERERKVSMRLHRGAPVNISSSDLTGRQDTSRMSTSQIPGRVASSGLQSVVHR
AAK1, sequence (Q2M2I8 whole entry): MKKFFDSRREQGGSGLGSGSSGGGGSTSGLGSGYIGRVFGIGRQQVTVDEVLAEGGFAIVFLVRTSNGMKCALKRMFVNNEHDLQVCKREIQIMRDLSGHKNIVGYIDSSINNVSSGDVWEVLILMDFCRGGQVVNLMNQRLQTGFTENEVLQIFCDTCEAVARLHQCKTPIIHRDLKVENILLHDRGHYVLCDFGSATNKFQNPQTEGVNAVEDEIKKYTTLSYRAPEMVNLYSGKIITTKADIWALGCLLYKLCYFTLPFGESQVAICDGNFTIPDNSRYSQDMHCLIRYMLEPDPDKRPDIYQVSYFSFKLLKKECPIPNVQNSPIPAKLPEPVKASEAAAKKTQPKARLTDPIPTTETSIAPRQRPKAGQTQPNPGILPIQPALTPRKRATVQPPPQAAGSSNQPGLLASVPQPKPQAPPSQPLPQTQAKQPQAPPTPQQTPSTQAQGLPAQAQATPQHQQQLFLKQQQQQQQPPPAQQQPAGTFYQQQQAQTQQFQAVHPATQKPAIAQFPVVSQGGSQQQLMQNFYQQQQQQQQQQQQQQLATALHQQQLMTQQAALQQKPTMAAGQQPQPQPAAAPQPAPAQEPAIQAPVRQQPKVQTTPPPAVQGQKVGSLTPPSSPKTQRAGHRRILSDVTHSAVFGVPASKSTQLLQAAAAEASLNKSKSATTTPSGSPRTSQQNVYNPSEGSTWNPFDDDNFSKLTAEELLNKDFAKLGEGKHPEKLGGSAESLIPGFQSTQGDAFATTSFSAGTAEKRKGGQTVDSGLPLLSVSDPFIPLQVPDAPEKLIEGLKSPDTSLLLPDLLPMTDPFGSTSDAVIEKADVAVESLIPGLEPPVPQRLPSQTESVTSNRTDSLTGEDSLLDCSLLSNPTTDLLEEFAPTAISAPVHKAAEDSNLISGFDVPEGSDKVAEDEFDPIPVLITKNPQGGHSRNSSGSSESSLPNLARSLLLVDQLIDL

With COc1cc(N2CCN(C)CC2)ccc1Nc1ncc2cc(-c3ccc(-c4cccc(C)n4)cc3Cl)c(=O)n(CCCCN)c2n1 [compound 36, 8-(4-Aminobutyl)-6-(2-chloro-4-(6-methylpyridin-2-yl)phenyl)-2-((2-methoxy-4-(4-methylpiperazin-1-yl)phenyl)amino)pyrido[2,3-d]pyrimidin-7(8H)-one] the “dTm 36” value (AAK1) was 2.4 °C, the “dTm 36” value (BRPF1) was -1.2 °C and the “dTm 36” value (CK1d) was 1.1 °C. The “dTm 36” value (CaMKK2) was 5.8 °C, the “dTm 36” value (MSK1b) was 3.0 °C and the “dTm 36” value (NEK2) was 9.2 °C. For the same molecule, the “dTm 36” value (TTK) was 4.3 °C.
For COc1cc(N2CCOCC2)ccc1Nc1ncc2cc(-c3ccc(-c4cccc(C)n4)cc3Cl)c(=O)n(CCCCN)c2n1 [compound 35, 8-(4-Aminobutyl)-6-(2-chloro-4-(6-methylpyridin-2-yl)phenyl)-2-((2-methoxy-4-morpholino-phenyl)amino)pyrido[2,3-d]pyrimidin-7(8H)-one], the “dTm 35” value (AAK1) was 3.0 °C, the “dTm 35” value (BRPF1) was -2.8 °C and the “dTm 35” value (CK1d) was 1.8 °C. The “dTm 35” value (CaMKK2) was 6.9 °C, the “dTm 35” value (MSK1b) was 3.8 °C and the “dTm 35” value (NEK2) was 10.6 °C. The “dTm 35” value (TTK) was 7.8 °C.
Cc1cccc(-c2ccc(-c3cc4cnc(Nc5ccc(F)c(CO)c5)nc4n(CCCCN)c3=O)c(Cl)c2)n1 [compound 33, 8-(4-Aminobutyl)-6-(2-chloro-4-(6-methylpyridin-2-yl)phenyl)-2-((4-fluoro-3-(hydroxymethyl)phenyl)amino)pyrido[2,3-d]pyrimidin-7(8H)-one] was tested, and the “dTm 33” value (AAK1) was 4.1 °C, the “dTm 33” value (BRPF1) was -2.7 °C and the “dTm 33” value (CK1d) was 2.2 °C. For the same molecule, the “dTm 33” value (CaMKK2) was 4.3 °C, the “dTm 33” value (MSK1b) was 3.5 °C and the “dTm 33” value (NEK2) was 10.6 °C. For the same molecule, the “dTm 33” value (TTK) was 1.3 °C.
COc1ccc(O)c(Nc2ncc3cc(-c4ccc(-c5cccc(C)n5)cc4Cl)c(=O)n(CCCCN)c3n2)c1 [compound 34, 8-(4-Aminobutyl)-6-(2-chloro-4-(6-methylpyridin-2-yl)phenyl)-2-((2-hydroxy-5-methoxy-phenyl)amino)pyrido[2,3-d]pyrimidin-7(8H)-one] was tested, and the “dTm 34” value (AAK1) was 1.4 °C, the “dTm 34” value (BRPF1) was -1.6 °C and the “dTm 34” value (CK1d) was 1.3 °C. For the same molecule, the “dTm 34” value (CaMKK2) was 4.3 °C, the “dTm 34” value (MSK1b) was 2.4 °C and the “dTm 34” value (NEK2) was 8.4 °C. The “dTm 34” value (TTK) was 2.9 °C.
